Assay results reported in patent US10143678B1, “Method of treatment of preventing hyperglycemia complications” (Sunway Biotech Co., LTD, priority 2015, dated 2018).
Marks after values point to notes of the source that are not given here.

Legend:
Assay type in all cases: in vivo
[1] = system: SD rats fed with high fat and fructose diet; assay: Liver, kidney and adipose tissue weight after sacrifice; conditions: HFFD-fed SD rats, oral 10 weeks
Source text: (§1) The present invention provides a method of treatment of preventing hyperglycemia complications using at least one pharmaceutical made from a red mold product, wherein the red mold product is a red mold rice or a red mold Dioscorea, and the pharmaceutical is an extract obtained from the red mold product. The extract is Monascin, Ankaflavin, or a combination of Monascin and Ankaflavin. […] Moreover, in order to verify the practicability of the method of treatment of preventing hyperglycemia complications proposed by the present invention, a particularly-arranged of animal experiment is completed by inventors. After 1-week pre-feeding, several SD rats are divided into 9 experimental groups for carrying out 10-week animal experiment.
Insulin is used for impelling the absorption and utilization of blood glucose in liver, muscle and adipose tissue. Because white adipose tissue (WAT) is used for storing triglycerides (TG) transformed from blood glucose, a large amount of accumulation of adipocytes would cause the occurrence of inflammatory response so as to induce lipolysis action. Therefore, the inflammatory-induced lipolysis action would produce a large amount of glycerin and free fatty acid (FFA), so as to aggravate the production of Hyperglycemia, fatty liver, and high blood ketone. Based on above reasons, the effects provided by the different test samples on liver, kidney, and adipose tissue weight of the rats are needed to be determined.
For carrying out the determination of liver, kidney, and adipose tissue weight, it needs to sacrifice the rats. After sacrificing the rat, blood to be determined is collected from the intraperitoneal of the rat by using syringes, and then the collected blood are disposed into a 2-mL microcentrifuge tube. After staying for 5 minutes, the microcentrifuge tube carrying with blood is treated with a centrifugation process, and then the serum of the blood is stored in an environment with −20° C. After that, the liver, kidney, and adipose tissue are taken out of the rat.

GLUT-4 = GLUT-4 expression in adipose tissue; conditions: FIG. 7, vs HFFD group; HFFD-fed SD rats, oral 10 weeks; 1-fold dose mg/kg bw/day: MF 78.06, RMD 104.17, Monascin 0.31 (MS1X), Ankaflavin 0.16 (AK1X), MS-AK 0.31 + 0.16
Source text: as §1

TNF-α = TNF-α expression in adipose tissue; conditions: FIG. 5, vs HFFD group; HFFD-fed SD rats, oral 10 weeks; 1-fold dose mg/kg bw/day: MF 78.06, RMD 104.17, Monascin 0.31 (MS1X), Ankaflavin 0.16 (AK1X), MS-AK 0.31 + 0.16
Source text: as §1

[2] = system: Reactive Oxygen Species (ROS); assay: ROS concentration in liver; conditions: FIG. 4, vs HFFD group; HFFD-fed SD rats, oral 10 weeks; 1-fold dose mg/kg bw/day: MF 78.06, RMD 104.17, Monascin 0.31 (MS1X), Ankaflavin 0.16 (AK1X), MS-AK 0.31 + 0.16
Source text: as §1

[3] = system: SD rats fed with high fat and fructose diet; assay: Histomorphology of liver slices (fatty liver); conditions: FIG. 11, vs HFFD group, oral 10 weeks, 1-fold dose mg/kg bw/day: MF 78.06, RMD 104.17, Monascin 0.31 (MS1X), Ankaflavin 0.16 (AK1X), MS-AK 0.31 + 0.16
Source text: as §1

HIF-1α = HIF-1α expression in adipose tissue; conditions: FIG. 10, vs HFFD group; HFFD-fed SD rats, oral 10 weeks; 1-fold dose mg/kg bw/day: MF 78.06, RMD 104.17, Monascin 0.31 (MS1X), Ankaflavin 0.16 (AK1X), MS-AK 0.31 + 0.16
Source text: as §1

[4] = system: SD rats fed with high fat and fructose diet; assay: Oral glucose tolerance test (OGTT), AUC of blood glucose; conditions: FIG. 2, vs HFFD group, oral 10 weeks, 1-fold dose mg/kg bw/day: MF 78.06, RMD 104.17, Monascin 0.31 (MS1X), Ankaflavin 0.16 (AK1X), MS-AK 0.31 + 0.16
Source text: as §1

GLUT-2 = GLUT-2 expression in adipose tissue; conditions: FIG. 6, vs HFFD group; HFFD-fed SD rats, oral 10 weeks; 1-fold dose mg/kg bw/day: MF 78.06, RMD 104.17, Monascin 0.31 (MS1X), Ankaflavin 0.16 (AK1X), MS-AK 0.31 + 0.16
Source text: as §1

IL-1β = IL-1β expression in adipose tissue; conditions: FIG. 9, vs HFFD group; HFFD-fed SD rats, oral 10 weeks; 1-fold dose mg/kg bw/day: MF 78.06, RMD 104.17, Monascin 0.31 (MS1X), Ankaflavin 0.16 (AK1X), MS-AK 0.31 + 0.16
Source text: as §1
(§2) Please refer to FIG. 8 and FIG. 9, where a statistical bar graph of IL-6 expression in adipose tissue and a statistical bar graph of IL-1β expression in adipose tissue are provided.

adiponectin = assay: Adiponectin expression in adipose tissue; conditions: FIG. 3, vs HFFD group; HFFD-fed SD rats, oral 10 weeks; 1-fold dose mg/kg bw/day: MF 78.06, RMD 104.17, Monascin 0.31 (MS1X), Ankaflavin 0.16 (AK1X), MS-AK 0.31 + 0.16
Source text: as §1

IL-6 = IL-6 expression in adipose tissue; conditions: FIG. 8, vs HFFD group; HFFD-fed SD rats, oral 10 weeks; 1-fold dose mg/kg bw/day: MF 78.06, RMD 104.17, Monascin 0.31 (MS1X), Ankaflavin 0.16 (AK1X), MS-AK 0.31 + 0.16
Source text: as §1, §2

[5] = 1-fold dose mg/kg bw/day: MF 78.06, RMD 104.17, Monascin 0.31 (MS1X), Ankaflavin 0.16 (AK1X), MS-AK 0.31 + 0.16
[6] = 5-fold dose mg/kg bw/day: Monascin 1.56 (MS5X), Ankaflavin 0.78 (AK5X)

Compound	Kidney weight [1, 5]	Occupying percentage of summation of the weights of peri-adrenal and epididymal adipose tissue in body Fat [1, 5]	Kidney weight [1, 6]	Occupying percentage of summation of the weights of peri-adrenal and epididymal adipose tissue in body Fat [1, 6]	percentage of GLUT-4 expression in adipose tissue (GLUT-4)	percentage of TNF-α expression in adipose tissue (TNF-α)	ROS level in liver [2]	formation of fatty liver [3]	percentage of HIF-1α expression in adipose tissue (HIF-1α)	AUC (area under curve) of blood glucose [4]	percentage of GLUT-2 expression in adipose tissue (GLUT-2)	percentage of IL-1β expression in adipose tissue (IL-1β)	percentage of adiponectin expression in adipose tissue (adiponectin)	percentage of IL-6 expression in adipose tissue (IL-6)
C/C=C/C1=CC2=C(CO1)C(=O)[C@]1(C)OC(=O)[C@H](C(=O)CCCCCCC)[C@H]1C2 [Ankaflavin]	3.72 ± 0.31^ab	4.32 ± 0.59^b %	3.55 ± 0.29^ab	4.30 ± 0.53^b %	–	–	–	–	–	–	–	–	–	–
C/C=C/C1=CC2=C(CO1)C(=O)[C@]1(C)OC(=O)[C@H](C(=O)CCCCC)[C@H]1C2 [Monascin]	3.61 ± 0.20^ab	5.12 ± 0.84^bc %	3.71 ± 0.40^ab	4.97 ± 0.80^bc %	–	–	–	–	–	–	–	–	–	–
CN(C)C(=N)N=C(N)N [MF, Metformin]	3.64 ± 0.26^ab	4.27 ± 1.43^bc %	–	–	largely enhanced	largely reduced	largely lowered	alleviated or solved	largely lowered	obviously lower	largely enhanced	largely lowered	largely enhanced	largely lowered
